# Test results as given in patent publication US9480259B2, “Pyrazolopyrans having herbicidal and pharmaceutical properties” (BASF SE, priority 2012, dated 2016).
# Target: Arabidopsis thaliana SHMT
# Assay: SHMT activity assay (ED50 SHMT), coupled with N5,N10-CH2-THF dehydrogenase, NADH at 340 nm
# Format: biochemical
# Details: Arabidopsis thaliana SHMT enzyme assay; values given as upper bounds
# Summary of the method: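 His-tagged SHMT purified on Ni-NTA. NADH formation followed at 340 nm for 30 min; ED50 from inhibition of initial velocity.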
row,SMILES,EC50 [nM]
1,Cc1n[nH]c2c1C(c1cc(Cl)cc(Cl)c1)(C(C)(F)F)C(C#N)=C(N)O2 (centres unmarked) [Compound 2.653],< 100
2,Cc1n[nH]c2c1C(c1ccc(CCc3nnn[nH]3)c(-c3nnn[nH]3)c1)(C1CCC1)C(C#N)=C(N)O2 (centres unmarked) [Compound 2.654],< 100
3,Cc1n[nH]c2c1C(c1cc(CCc3nnn[nH]3)cc(-c3nnn[nH]3)c1)(C1CCC1)C(C#N)=C(N)O2 (centres unmarked) [Compound 2.655],< 10000
4,Cc1n[nH]c2c1C(c1cc(C#N)cc(-c3cccc(C(=O)O)c3)c1)(C1(F)COC1)C(C#N)=C(N)O2 (centres unmarked) [Compound 2.656],< 10
5,CCOC(=O)CCCN(C)c1cc(C#N)cc(C2(C3CCC3)C(C#N)=C(N)Oc3[nH]nc(C)c32)c1 (centres unmarked) [Compound 2.658],< 10
6,Cc1n[nH]c2c1C(c1cc(C#N)cc(N(C)Cc3ccccc3)c1)(C1CCC1)C(C#N)=C(N)O2 (centres unmarked) [Compound 2.660],< 10
7,COCCOCC(=O)N(C)c1cc(C#N)cc(C2(C(C)C)C(C#N)=C(N)Oc3[nH]nc(C)c32)c1 (centres unmarked) [Compound 2.666],< 10
8,Cc1n[nH]c2c1C(c1cc(Cl)cc(SCc3nnn[nH]3)c1)(C1CCC1)C(C#N)=C(N)O2 (centres unmarked) [Compound 2.667],< 10
9,Cc1n[nH]c2c1C(c1cc(-c3nnn[nH]3)cc(N(C)C(=O)CCC#N)c1)(C1CCC1)C(C#N)=C(N)O2 (centres unmarked) [Compound 2.668],< 100
10,Cc1n[nH]c2c1C(c1cc(C#N)cc(N(C)C(=O)c3ccc(C(=O)O)cc3)c1)(C(C)C)C(C#N)=C(N)O2 (centres unmarked) [Compound 2.669],< 100
11,Cc1n[nH]c2c1C(c1cc(C#N)cc(CCC#N)c1)(C(C)C)C(C#N)=C(N)O2 (centres unmarked) [Compound 2.671],< 10
12,Cc1n[nH]c2c1C(c1ccc(CC#N)c(C#N)c1)(C1CCC1)C(C#N)=C(N)O2 (centres unmarked) [Compound 2.672],< 10
13,Cc1n[nH]c2c1C(c1cc(Cl)cc(Cl)c1)(C1CC(F)C1)C(C#N)=C(N)O2 (centres unmarked) [Compound 2.674],< 10
14,COC(=O)c1ccc(-c2cc(C#N)cc(C3(C4(F)COC4)C(C#N)=C(N)Oc4[nH]nc(C)c43)c2)s1 (centres unmarked) [Compound 2.676],< 100
15,Cc1n[nH]c2c1C(c1cc(Cl)cc(CCCc3nnn[nH]3)c1)(C1CCC1)C(C#N)=C(N)O2 (centres unmarked) [Compound 2.677],< 10
16,Cc1n[nH]c2c1C(c1ccc(CCCc3nnn[nH]3)c(Cl)c1)(C1CCC1)C(C#N)=C(N)O2 (centres unmarked) [Compound 2.678],< 10
17,COC(=O)c1csc(-c2cc(C#N)cc(C3(C(C)C)C(C#N)=C(N)Oc4[nH]nc(C)c43)c2)c1 (centres unmarked) [Compound 2.679],< 10
18,Cc1n[nH]c2c1C(c1cc(C#N)cc(-c3ccc(C(=O)O)s3)c1)(C1(F)COC1)C(C#N)=C(N)O2 (centres unmarked) [Compound 2.680],< 1000
19,Cc1n[nH]c2c1C(c1cc(C#N)cc(-c3ccc(C(=O)O)o3)c1)(C1(F)COC1)C(C#N)=C(N)O2 (centres unmarked) [Compound 2.681],< 10000
20,COC(=O)c1csc(-c2cc(C#N)cc(C3(C4CCC4)C(C#N)=C(N)Oc4[nH]nc(C)c43)c2)c1 (centres unmarked) [Compound 2.682],< 10
21,Cc1n[nH]c2c1C(c1cc(Br)cc(Br)c1)(C(C)F)C(C#N)=C(N)O2 (centres unmarked) [Compound 2.685],< 10

# Continued, values first:
row,EC50 [nM],SMILES
1,< 10,Cc1n[nH]c2c1C(c1cc(C#N)cc(N(C)C(=O)CCCC#N)c1)(C1CCC1)C(C#N)=C(N)O2 (centres unmarked) [Compound 2.659]
2,< 10,Cc1n[nH]c2c1C(c1cc(C#N)cc(N(C)C(=O)CCC#N)c1)(C1CCC1)C(C#N)=C(N)O2 (centres unmarked) [Compound 2.661]
3,< 10,Cc1n[nH]c2c1C(c1cc(Cl)cc(SCC#N)c1)(C1CCC1)C(C#N)=C(N)O2 (centres unmarked) [Compound 2.665]
4,< 10,Cc1n[nH]c2c1C(c1cc(Cl)cc(CCCC#N)c1)(C1CCC1)C(C#N)=C(N)O2 (centres unmarked) [Compound 2.670]
5,< 10,Cc1n[nH]c2c1C(c1ccc(CCCC#N)c(Cl)c1)(C1CCC1)C(C#N)=C(N)O2 (centres unmarked) [Compound 2.673]
6,< 10,Cc1n[nH]c2c1C(c1cc(C#N)cc(-c3cc(C(=O)O)cs3)c1)(C1CCC1)C(C#N)=C(N)O2 (centres unmarked) [Compound 2.683]
7,< 10,Cc1n[nH]c2c1C(c1cc(C#N)cc(-c3cc(C(=O)O)co3)c1)(C1CCC1)C(C#N)=C(N)O2 (centres unmarked) [Compound 2.684]

# Same assay, conditions: Table 2; values given as upper bounds
row,SMILES,EC50 [nM]
1,Cc1n[nH]c2c1C(c1cc(C#N)cc(N(C)CCC#N)c1)(C1CCC1)C(C#N)=C(N)O2 (centres unmarked) [Compound 2.629],< 10
2,Cc1n[nH]c2c1C(c1cc(C#N)cc(N(C)CC#N)c1)(C1CCC1)C(C#N)=C(N)O2 (centres unmarked) [Compound 2.631],< 10
3,Cc1n[nH]c2c1C(c1cc(C#N)cc(N(C)C(=O)c3cccc(C(=O)O)c3)c1)(C1CCC1)C(C#N)=C(N)O2 (centres unmarked) [Compound 2.633],< 100
4,Cc1n[nH]c2c1C(c1ccc(CCc3nnn[nH]3)c(Cl)c1)(C1CCC1)C(C#N)=C(N)O2 (centres unmarked) [Compound 2.637],< 10
5,Cc1n[nH]c2c1C(c1ccc(OCc3nnn[nH]3)c(Cl)c1)(C1CCC1)C(C#N)=C(N)O2 (centres unmarked) [Compound 2.638],< 10
6,Cc1n[nH]c2c1C(c1ccc(Cc3nnn[nH]3)c(Cl)c1)(C1CCC1)C(C#N)=C(N)O2 (centres unmarked) [Compound 2.639],< 10
7,Cc1n[nH]c2c1C(c1cc(C#N)cc(-c3ccc(C(=O)O)s3)c1)(C1CCC1)C(C#N)=C(N)O2 (centres unmarked) [Compound 2.640],< 10
8,Cc1n[nH]c2c1C(c1ccc(OCCC#N)c(Cl)c1)(C1CCC1)C(C#N)=C(N)O2 (centres unmarked) [Compound 2.645],< 10
9,Cc1n[nH]c2c1C(c1ccc(OCCc3nnn[nH]3)c(Cl)c1)(C1CCC1)C(C#N)=C(N)O2 (centres unmarked) [Compound 2.646],< 10
10,Cc1n[nH]c2c1C(c1ccc(CCC#N)c(C#N)c1)(C1CCC1)C(C#N)=C(N)O2 (centres unmarked) [Compound 2.647],< 10
11,Cc1n[nH]c2c1C(c1cc(Cl)cc(Cl)c1)(C(C)F)C(C#N)=C(N)O2 (centres unmarked) [Compound 2.651],< 10
12,Cc1n[nH]c2c1C(c1cc(Cl)cc(Cl)c1)(C1CC(F)(F)C1)C(C#N)=C(N)O2 (centres unmarked) [Compound 2.652],< 10

# Next, values leading:
row,EC50 [nM],SMILES
1,< 100,Cc1n[nH]c2c1C(c1cc(C#N)cc(OCC(=O)O)c1)(C1CCC1)C(C#N)=C(N)O2 (centres unmarked) [Compound 2.625]
2,< 100,Cc1n[nH]c2c1C(c1cc(O)cc(C#N)c1)(C1CCC1)C(C#N)=C(N)O2 (centres unmarked) [Compound 2.626]
3,< 100,Cc1n[nH]c2c1C(c1cc(C#N)cc(CC(=O)O)c1)(C1CCC1)C(C#N)=C(N)O2 (centres unmarked) [Compound 2.627]
4,< 10,Cc1n[nH]c2c1C(c1cc(C#N)cc(N(C)C(=O)CCC(=O)O)c1)(C1CCC1)C(C#N)=C(N)O2 (centres unmarked) [Compound 2.632]
5,< 100,Cc1n[nH]c2c1C(c1cc(C#N)cc(N(C)C(=O)c3ccc(C(=O)O)cc3)c1)(C1CCC1)C(C#N)=C(N)O2 (centres unmarked) [Compound 2.634]
6,< 10,Cc1n[nH]c2c1C(c1cc(C#N)cc(N(C)C(=O)CCCC(=O)O)c1)(C1CCC1)C(C#N)=C(N)O2 (centres unmarked) [Compound 2.636]
7,< 10,Cc1n[nH]c2c1C(c1cc(C#N)cc(-c3cc(OC(F)(F)F)cc(C(=O)O)c3)c1)(C1CCC1)C(C#N)=C(N)O2 (centres unmarked) [Compound 2.643]
8,< 10,Cc1n[nH]c2c1C(c1cc(C#N)cc(-c3cc(C(=O)O)cc(C(F)(F)F)c3)c1)(C1CCC1)C(C#N)=C(N)O2 (centres unmarked) [Compound 2.644]
9,< 10,Cc1n[nH]c2c1C(c1cc(CNC(=O)CCC(=O)O)cc(C(F)(F)F)c1)(C1CCC1)C(C#N)=C(N)O2 (centres unmarked) [Compound 2.649]
10,< 10,Cc1n[nH]c2c1C(c1cc(C#N)cc(CCC#N)c1)(C1CCC1)C(C#N)=C(N)O2 (centres unmarked) [Compound 2.650]
